We go through two molecules from US7041686B2, “Substituted imidazoles useful in the treatment of inflammatory diseases” (priority 2000, dated 2006).

One data set deals with TNF-α. As to the kind of experiment: LPS-induced TNF-α production in human PBMC, in vitro whole cell assay (ELISA). Conditions: LPS stimulation overnight, TNF-α by ELISA. Format: cell-based. As to the method: Compounds of the invention were measured for their ability to inhibit the activity of p38 in an in vitro whole cell assay using peripheral blood mononuclear cells (“PBMC” ) obtained from human blood as follows. Freshly obtained venous blood was anticoagulated with heparin, diluted with an equal volume of phosphate buffered saline (“PBS” ) and placed in a sterile tube or other container. Aliquots (30 mL) of this mixture were transferred to centrifuge tubes which were underlaid with Ficoll-Hypaque (15 mL). The prepared tubes were centrifuged at 400×g without braking for 30 min at room temperature. Approximately ½ to ⅔ of the platelet layer above the mononuclear cell band was removed with a pipet. The majority of the mononuclear cell layer was carefully removed using a pipet and these PBMCs were diluted with PBS and spun at 600×g for 15 min. The resulting PBMCs were washed with another portion of PBS and spun at 400×g for 10 min at room temperature. The recovered pellets were diluted in low endotoxin RPMI/1% FCS culture medium and gave a cell concentration of 0.5–2.0×10^6 PMBC/mL. A small volume of the suspension was removed for counting on a hemocytometer and the remaining preparation was centrifuged at 200×g for 15 min at room temperature. The recovered pelleted PMBC were resuspended in RPMI/1% FCS to a concentration of 1.67×10^6/mL. […]
Background: In an ELISA, binding on a coated surface is turned into a signal by an enzyme label.

A further data set deals with Mouse TNF-α. Kind of data set: LPS induced TNF-α production, in vivo rodent assay (oral dosing, serum ELISA). As to conditions: LPS 1 mg/kg i.p. 30 min after dosing, serum 1 h later; for inhibition at 10 mg/kg: oral 10 mg/kg; for inhibition at 25 mg/kg: oral 25 mg/kg. As to the method:
Mice (BALB/cJ females, Jackson Laboratories) or rats (Lewis males, Charles River) were fasted for 30 min prior to oral dosing with 5–10 mL/kg of test compound at 5–50 mg/kg. Thirty minutes after dosing, the animals were injected intraperitoneally with LPS at 1 mg/kg and returned to their cages for 1 h. Animals were anesthetized by CO2, exsanguinated by cardiac puncture and whole blood collected (0.1–0.7 mL). The blood was allowed to clot and serum was transferred to a centrifuge tube. This sample was centrifuged, serum was collected, aliquoted and frozen at −80 C. Samples were tested by commercial ELISAs for TNF-α (Endogen for mouse TNF-α and Biosource for rat TNF-α), resulting in data as shown in Table A.

As a reminder, the IC50 is the concentration that inhibits the measured activity by half. Higher therefore signals weaker potency in that assay. The term inhibition denotes the relative decrease from the control value, in per cent. Low values mean little suppression, high ones strong suppression. For orientation: melting point means the temperature, or range, at which the solid turns liquid. The molecule `CN1CCC/C1=C\c1nc(-c2ccc(F)cc2)c(-c2ccncc2)n1CCCc1ccccc1` [Compound 1, 4-[4-(4-fluorophenyl)-2-[(E)-(1-methyl-2-pyrrolidinylidene)methyl]-1-(3-phenylpropyl)-1H-imidazol-5-yl]-pyridine] gave a melting point of 171 to 172 °C. The molecule further showed an IC50 in the data set on TNF-α of 15 nM. In the data set with Mouse TNF-α, this molecule showed an inhibition at 10 mg/kg of 77% and an inhibition at 25 mg/kg of 99%.
With `CCN1CCC/C1=C\c1nc(-c2ccc(F)cc2)c(-c2ccncc2)n1CCCc1ccccc1` [Compound 2, 4-[4-(4-fluorophenyl)-2-[(E)-(1-ethyl-2-pyrrolidinylidene)methyl]-1-(3-phenylpropyl)-1H-imidazol-5-yl]-pyridine], the melting point lay in the range of 126.6 to 127.6 °C. Moreover, inhibition with TNF-α was half-maximal at 17 nM (IC50). For the same molecule, in the data set with Mouse TNF-α, the inhibition at 10 mg/kg amounted to 89% and the inhibition at 25 mg/kg came to 98%.
